Source: patent US9249129B2, “Morpholino substituted urea derivatives as mTOR inhibitors” (CELLZOME LIMITED, priority 2010, dated 2016)

How the values were obtained:
Assay in all cases: kinobeads assay with mass spectrometry detection of kinases (kinase selectivity profile)
Format in all cases: binding
kinases (kinome) [1] = molecular target: T1, kinases (kinome) (Homo sapiens, UniProt P10398); conditions: ARAF (TKL), IPI00020578
T1 construct: determined in kinobeads assays with mass spectrometry detection of kinases as described previously; endogenous in cells; host or cells: cell lysate
T1 sequence (P10398 1-606): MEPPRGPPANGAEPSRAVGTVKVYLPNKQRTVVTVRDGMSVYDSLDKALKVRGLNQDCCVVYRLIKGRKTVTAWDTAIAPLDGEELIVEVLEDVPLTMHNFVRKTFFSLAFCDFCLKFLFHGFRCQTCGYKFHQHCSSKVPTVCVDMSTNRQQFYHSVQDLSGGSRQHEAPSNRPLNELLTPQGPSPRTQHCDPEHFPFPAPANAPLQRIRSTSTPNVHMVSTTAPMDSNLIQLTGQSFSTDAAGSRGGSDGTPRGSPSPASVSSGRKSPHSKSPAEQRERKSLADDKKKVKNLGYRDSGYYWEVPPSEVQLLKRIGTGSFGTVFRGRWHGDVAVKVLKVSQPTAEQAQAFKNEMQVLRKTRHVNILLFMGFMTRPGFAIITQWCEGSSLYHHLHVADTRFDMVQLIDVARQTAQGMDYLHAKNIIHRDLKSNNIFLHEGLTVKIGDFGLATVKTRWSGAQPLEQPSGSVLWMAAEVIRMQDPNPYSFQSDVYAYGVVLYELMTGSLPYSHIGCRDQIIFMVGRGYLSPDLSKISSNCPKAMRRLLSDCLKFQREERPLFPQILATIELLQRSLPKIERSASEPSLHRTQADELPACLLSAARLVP
Source text: (§1) The protein kinase complement of the human genome (the kinome) was described previously (Manning et al., 2002. Science 298(5600):1912-1934). Sequence accession numbers are defined by the International Protein Index (IPI) (Kersey et al., 2004. Proteomics 4(7):1985-1988).

kinases (kinome) [2] = molecular target: T2, kinases (kinome) (Homo sapiens, UniProt P17252); conditions: PKCa (AGC), IPI00385449
T2 construct: determined in kinobeads assays with mass spectrometry detection of kinases as described previously; endogenous in cells; host or cells: cell lysate
Source text: as §1

kinases (kinome) [3] = molecular target: T3, kinases (kinome) (Homo sapiens, UniProt P36896); conditions: ALK4 (TKL), IPI00005732
T3 construct: determined in kinobeads assays with mass spectrometry detection of kinases as described previously; endogenous in cells; host or cells: cell lysate
T3 sequence (P36896 24-505): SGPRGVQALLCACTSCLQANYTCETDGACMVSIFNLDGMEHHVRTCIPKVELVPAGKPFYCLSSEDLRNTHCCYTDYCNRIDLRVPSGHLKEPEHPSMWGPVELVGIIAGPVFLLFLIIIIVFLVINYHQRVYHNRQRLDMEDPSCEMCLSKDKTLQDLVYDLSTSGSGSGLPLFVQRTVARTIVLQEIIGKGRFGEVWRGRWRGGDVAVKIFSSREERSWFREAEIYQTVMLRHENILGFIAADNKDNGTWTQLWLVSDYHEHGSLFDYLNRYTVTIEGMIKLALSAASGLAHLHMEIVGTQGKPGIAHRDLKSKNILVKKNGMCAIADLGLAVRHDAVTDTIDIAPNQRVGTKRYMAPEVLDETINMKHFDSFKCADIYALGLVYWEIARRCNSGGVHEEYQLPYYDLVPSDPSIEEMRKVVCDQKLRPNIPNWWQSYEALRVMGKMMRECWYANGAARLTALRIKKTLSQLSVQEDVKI
Source text: as §1

kinases (kinome) [4] = molecular target: T4, kinases (kinome) (Homo sapiens, UniProt P48729); conditions: CK1a (CK1), IPI00448798
T4 construct: determined in kinobeads assays with mass spectrometry detection of kinases as described previously; endogenous in cells; host or cells: cell lysate
T4 sequence (P48729 whole entry): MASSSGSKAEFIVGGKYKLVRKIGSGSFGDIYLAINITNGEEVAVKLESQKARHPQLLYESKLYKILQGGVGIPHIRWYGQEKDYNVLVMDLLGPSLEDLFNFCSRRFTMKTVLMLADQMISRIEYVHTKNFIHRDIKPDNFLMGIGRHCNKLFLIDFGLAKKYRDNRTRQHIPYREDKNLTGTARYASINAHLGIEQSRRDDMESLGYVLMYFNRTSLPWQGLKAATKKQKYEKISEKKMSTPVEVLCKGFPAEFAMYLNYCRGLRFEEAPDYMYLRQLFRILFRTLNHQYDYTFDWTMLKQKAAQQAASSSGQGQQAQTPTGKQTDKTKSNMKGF
Source text: as §1

kinases (kinome) [5] = molecular target: T5, kinases (kinome) (Homo sapiens, UniProt P50750); conditions: CDK9 (CMGC), IPI00552413
T5 construct: determined in kinobeads assays with mass spectrometry detection of kinases as described previously; endogenous in cells; host or cells: cell lysate
T5 sequence (P50750 whole entry): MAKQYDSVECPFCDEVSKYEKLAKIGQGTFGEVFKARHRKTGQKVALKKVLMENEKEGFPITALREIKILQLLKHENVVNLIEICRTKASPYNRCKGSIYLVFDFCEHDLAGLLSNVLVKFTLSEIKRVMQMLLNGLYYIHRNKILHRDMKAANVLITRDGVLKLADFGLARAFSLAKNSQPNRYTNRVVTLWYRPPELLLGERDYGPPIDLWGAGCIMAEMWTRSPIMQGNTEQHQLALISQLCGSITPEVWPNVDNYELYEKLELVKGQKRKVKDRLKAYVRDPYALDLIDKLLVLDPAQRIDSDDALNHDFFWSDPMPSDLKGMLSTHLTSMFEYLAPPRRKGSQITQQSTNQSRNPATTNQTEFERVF
Source text: as §1

kinases (kinome) [6] = molecular target: T6, kinases (kinome) (Homo sapiens, UniProt Q08345); conditions: DDR1 (TK), IPI00657861
T6 construct: determined in kinobeads assays with mass spectrometry detection of kinases as described previously; endogenous in cells; host or cells: cell lysate
T6 sequence (Q08345 19-913): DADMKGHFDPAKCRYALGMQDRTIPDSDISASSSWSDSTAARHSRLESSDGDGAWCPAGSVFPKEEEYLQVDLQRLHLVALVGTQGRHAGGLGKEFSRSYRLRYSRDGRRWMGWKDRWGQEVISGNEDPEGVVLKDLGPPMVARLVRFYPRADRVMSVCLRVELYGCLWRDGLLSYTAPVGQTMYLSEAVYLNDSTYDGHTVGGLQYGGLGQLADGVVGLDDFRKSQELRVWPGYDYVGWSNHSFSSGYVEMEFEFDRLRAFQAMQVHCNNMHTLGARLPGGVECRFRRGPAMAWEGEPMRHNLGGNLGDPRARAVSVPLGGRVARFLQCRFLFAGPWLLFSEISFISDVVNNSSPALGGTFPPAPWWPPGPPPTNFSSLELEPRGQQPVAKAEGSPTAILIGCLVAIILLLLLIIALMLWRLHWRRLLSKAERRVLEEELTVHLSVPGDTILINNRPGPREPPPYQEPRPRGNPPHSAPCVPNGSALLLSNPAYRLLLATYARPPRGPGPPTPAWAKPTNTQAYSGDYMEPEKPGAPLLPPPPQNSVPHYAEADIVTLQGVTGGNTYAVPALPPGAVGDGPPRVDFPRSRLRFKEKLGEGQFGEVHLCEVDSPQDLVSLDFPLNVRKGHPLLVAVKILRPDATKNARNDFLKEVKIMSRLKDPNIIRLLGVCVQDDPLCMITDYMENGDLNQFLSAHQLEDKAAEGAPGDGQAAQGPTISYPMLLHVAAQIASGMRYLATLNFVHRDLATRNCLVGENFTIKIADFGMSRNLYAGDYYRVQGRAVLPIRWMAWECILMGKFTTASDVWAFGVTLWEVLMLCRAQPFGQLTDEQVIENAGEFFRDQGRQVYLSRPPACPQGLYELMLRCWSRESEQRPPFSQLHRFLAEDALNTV
Source text: as §1

kinases (kinome) [7] = molecular target: T7, kinases (kinome) (Homo sapiens, UniProt Q13131); conditions: AMPKa1 (CAMK), IPI00410287
T7 construct: determined in kinobeads assays with mass spectrometry detection of kinases as described previously; endogenous in cells; host or cells: cell lysate
Source text: as §1

kinases (kinome) [8] = molecular target: T8, kinases (kinome) (Homo sapiens, UniProt Q13557); conditions: CaMK2d (CAMK), IPI00828081
T8 construct: determined in kinobeads assays with mass spectrometry detection of kinases as described previously; endogenous in cells; host or cells: cell lysate
T8 sequence (Q13557 whole entry): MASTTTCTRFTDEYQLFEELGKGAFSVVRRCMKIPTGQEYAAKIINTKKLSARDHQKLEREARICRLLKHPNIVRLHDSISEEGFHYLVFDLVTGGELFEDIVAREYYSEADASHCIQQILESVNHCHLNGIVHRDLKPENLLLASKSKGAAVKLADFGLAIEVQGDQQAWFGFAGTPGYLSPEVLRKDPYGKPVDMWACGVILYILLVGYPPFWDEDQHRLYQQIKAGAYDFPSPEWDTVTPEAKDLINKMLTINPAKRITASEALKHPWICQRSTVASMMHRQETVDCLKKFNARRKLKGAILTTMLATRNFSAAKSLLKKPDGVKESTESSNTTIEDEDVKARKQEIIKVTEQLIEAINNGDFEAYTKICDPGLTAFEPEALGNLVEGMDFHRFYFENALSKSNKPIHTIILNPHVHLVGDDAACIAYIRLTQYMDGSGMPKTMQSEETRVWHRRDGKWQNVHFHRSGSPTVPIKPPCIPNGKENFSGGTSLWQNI
Source text: as §1

kinases (kinome) [9] = molecular target: T9, kinases (kinome) (Homo sapiens, UniProt Q9H2K8); conditions: TAO3 (STE), IPI00410485
T9 construct: determined in kinobeads assays with mass spectrometry detection of kinases as described previously; endogenous in cells; host or cells: cell lysate
T9 sequence (Q9H2K8 1-898): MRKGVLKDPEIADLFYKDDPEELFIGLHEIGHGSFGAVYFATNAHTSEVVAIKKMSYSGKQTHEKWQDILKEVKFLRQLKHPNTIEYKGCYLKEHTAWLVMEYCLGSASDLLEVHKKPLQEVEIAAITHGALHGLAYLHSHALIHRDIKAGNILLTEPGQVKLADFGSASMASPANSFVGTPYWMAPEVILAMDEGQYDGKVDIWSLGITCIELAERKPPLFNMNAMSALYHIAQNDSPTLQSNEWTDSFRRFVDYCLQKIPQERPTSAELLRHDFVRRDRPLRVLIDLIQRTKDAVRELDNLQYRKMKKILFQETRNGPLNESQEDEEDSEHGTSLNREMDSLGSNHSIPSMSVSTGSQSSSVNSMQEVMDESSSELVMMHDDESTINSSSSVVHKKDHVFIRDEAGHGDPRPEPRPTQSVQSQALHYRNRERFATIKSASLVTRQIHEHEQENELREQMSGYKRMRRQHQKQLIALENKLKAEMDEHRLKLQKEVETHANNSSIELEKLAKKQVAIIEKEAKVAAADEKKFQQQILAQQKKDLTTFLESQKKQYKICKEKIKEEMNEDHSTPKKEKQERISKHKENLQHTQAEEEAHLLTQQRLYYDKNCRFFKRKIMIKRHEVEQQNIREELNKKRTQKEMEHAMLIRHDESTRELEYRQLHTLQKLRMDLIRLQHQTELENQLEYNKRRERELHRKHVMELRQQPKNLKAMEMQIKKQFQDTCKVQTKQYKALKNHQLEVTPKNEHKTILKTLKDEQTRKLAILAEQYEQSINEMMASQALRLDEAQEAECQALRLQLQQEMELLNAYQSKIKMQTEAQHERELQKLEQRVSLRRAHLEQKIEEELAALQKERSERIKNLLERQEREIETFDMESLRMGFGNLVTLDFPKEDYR
Source text: as §1

kinases (kinome) [10] = molecular target: T10, kinases (kinome) (Homo sapiens, UniProt Q9HCP0); conditions: CK1g1 (CK1), IPI00791893
T10 construct: determined in kinobeads assays with mass spectrometry detection of kinases as described previously; endogenous in cells; host or cells: cell lysate
T10 sequence (Q9HCP0 whole entry): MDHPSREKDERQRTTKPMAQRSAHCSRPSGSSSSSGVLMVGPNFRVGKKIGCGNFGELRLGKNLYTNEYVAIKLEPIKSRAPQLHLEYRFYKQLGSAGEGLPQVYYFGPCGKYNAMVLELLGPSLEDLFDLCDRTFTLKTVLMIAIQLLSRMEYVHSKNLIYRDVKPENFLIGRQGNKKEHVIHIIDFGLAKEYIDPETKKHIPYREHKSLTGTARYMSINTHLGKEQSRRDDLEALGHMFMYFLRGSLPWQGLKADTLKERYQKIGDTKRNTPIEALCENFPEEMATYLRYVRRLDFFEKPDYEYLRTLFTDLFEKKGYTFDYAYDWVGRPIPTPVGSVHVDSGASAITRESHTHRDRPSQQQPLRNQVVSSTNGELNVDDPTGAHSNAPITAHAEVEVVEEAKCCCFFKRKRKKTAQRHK
Source text: as §1

kinases (kinome) [11] = molecular target: T11, kinases (kinome) (Homo sapiens, UniProt Q9Y2K2); conditions: QSK (CAMK), IPI00657720
T11 construct: determined in kinobeads assays with mass spectrometry detection of kinases as described previously; endogenous in cells; host or cells: cell lysate
T11 sequence (Q9Y2K2 whole entry): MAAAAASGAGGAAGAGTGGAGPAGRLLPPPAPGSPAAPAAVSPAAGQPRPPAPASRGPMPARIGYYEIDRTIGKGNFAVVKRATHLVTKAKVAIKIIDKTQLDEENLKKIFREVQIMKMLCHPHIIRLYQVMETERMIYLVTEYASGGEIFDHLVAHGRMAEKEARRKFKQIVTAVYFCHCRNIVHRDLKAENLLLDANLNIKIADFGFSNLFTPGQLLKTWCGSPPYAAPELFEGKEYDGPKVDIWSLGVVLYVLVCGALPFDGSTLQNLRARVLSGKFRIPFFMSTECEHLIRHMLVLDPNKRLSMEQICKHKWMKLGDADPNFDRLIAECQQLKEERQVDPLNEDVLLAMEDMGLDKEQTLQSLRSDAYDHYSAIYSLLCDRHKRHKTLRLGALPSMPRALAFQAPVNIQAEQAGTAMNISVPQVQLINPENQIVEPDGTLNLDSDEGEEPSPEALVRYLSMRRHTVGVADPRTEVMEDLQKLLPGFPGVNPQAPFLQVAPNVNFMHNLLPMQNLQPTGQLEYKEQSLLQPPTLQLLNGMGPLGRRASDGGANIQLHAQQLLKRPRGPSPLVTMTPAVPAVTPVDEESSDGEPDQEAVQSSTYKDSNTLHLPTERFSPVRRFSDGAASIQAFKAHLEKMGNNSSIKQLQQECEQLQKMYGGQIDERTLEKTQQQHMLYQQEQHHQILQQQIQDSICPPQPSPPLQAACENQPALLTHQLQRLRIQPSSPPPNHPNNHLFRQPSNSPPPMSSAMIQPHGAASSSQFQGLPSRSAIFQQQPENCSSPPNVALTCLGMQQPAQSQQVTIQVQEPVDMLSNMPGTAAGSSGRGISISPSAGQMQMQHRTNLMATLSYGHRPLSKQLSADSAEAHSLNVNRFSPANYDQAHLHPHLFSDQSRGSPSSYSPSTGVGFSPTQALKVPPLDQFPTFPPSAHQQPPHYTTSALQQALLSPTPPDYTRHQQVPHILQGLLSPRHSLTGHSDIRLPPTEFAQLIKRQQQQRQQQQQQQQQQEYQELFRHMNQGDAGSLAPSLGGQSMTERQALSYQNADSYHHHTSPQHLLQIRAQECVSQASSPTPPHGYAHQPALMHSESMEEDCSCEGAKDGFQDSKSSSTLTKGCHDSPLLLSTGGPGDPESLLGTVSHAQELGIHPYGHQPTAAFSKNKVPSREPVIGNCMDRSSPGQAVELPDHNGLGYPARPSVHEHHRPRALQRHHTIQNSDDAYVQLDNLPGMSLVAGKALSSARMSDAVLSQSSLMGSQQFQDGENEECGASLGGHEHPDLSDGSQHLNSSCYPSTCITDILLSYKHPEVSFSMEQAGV
Source text: as §1

kinases (kinome) [12] = molecular target: T12, kinases (kinome) (Homo sapiens, UniProt Q9Y572); conditions: RIPK3 (TKL), IPI00847572
T12 construct: determined in kinobeads assays with mass spectrometry detection of kinases as described previously; endogenous in cells; host or cells: cell lysate
T12 sequence (Q9Y572 whole entry): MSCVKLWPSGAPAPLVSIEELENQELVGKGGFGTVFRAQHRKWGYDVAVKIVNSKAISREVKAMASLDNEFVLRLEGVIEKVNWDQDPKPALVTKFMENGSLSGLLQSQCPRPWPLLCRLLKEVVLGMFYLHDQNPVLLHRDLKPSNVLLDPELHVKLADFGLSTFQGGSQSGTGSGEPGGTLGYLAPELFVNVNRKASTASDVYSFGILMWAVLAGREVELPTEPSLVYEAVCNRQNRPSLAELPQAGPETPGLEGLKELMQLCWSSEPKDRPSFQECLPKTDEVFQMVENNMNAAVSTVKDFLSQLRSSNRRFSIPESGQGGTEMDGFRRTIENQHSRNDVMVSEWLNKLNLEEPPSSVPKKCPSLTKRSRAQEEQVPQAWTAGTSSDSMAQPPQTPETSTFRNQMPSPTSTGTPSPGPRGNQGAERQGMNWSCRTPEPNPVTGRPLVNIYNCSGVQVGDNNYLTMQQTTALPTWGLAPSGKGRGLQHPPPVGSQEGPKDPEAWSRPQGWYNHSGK
Source text: as §1

Measured: IC50

C[C@H]1COCCN1c1nc(-c2ccc(NC(=O)NC3CC3)cc2)cc(-c2ccccc2S(C)(=O)=O)n1 [Example 4, (S)-1-cyclopropyl-3-(4-(2-(3-methylmorpholino)-6-(2-(methylsulfonyl)phenyl)pyrimidin-4-yl)phenyl)urea]
> 10 µM: all assays above

C[C@H]1COCCN1c1cc(-c2ccccc2S(C)(=O)=O)nc(-c2ccc(NC(=O)NC3CC3)cc2)n1 [Example 6, (S)-1-cyclopropyl-3-(4-(4-(3-methylmorpholino)-6-(2-(methylsulfonyl)phenyl)pyrimidin-2-yl)phenyl)urea]
> 10 µM: all assays above

C[C@H]1COCCN1c1nc(-c2ccc(NC(=O)N[C@H]3CCC[C@@H]3O)cc2)cc(-c2cc(F)ccc2S(C)(=O)=O)n1 [Example 76, 1-(4-(6-(5-fluoro-2-(methylsulfonyl)phenyl)-2-((S)-3-methylmorpholino)pyrimidin-4-yl)phenyl)-3-((1S,2S)-2-hydroxycyclopentyl)urea]
> 10 µM: all assays above

C[C@H]1COCCN1c1nc(-c2ccc(NC(=O)NC3CC3)cc2)cc(-c2cccnc2S(C)(=O)=O)n1 [Example 46, (S)-1-cyclopropyl-3-(4-(2-(3-methylmorpholino)-6-(2-(methylsulfonyl)pyridin-3-yl)pyrimidin-4-yl)phenyl)urea]
> 10 µM: all assays above

C[C@H]1COCCN1c1cc(-c2ccccn2)nc(-c2ccc(NC(=O)NCCO)cc2)n1 [Example 43, (S)-1-(2-hydroxyethyl)-3-(4-(4-(3-methylmorpholino)-6-(pyridin-2-yl)pyrimidin-2-yl)phenyl)urea]
not listed: kinases (kinome) [3]
> 10 µM: all other assays above

C[C@H]1COCCN1c1nc(-c2ccc(NC(=O)NC3CC3)cc2)cc(-c2cc(F)ccc2S(C)(=O)=O)n1 [Example 40, (S)-1-cyclopropyl-3-(4-(6-(5-fluoro-2-(methylsulfonyl)phenyl)-2-(3-methylmorpholino)pyrimidin-4-yl)phenyl)urea]
> 10 µM: all assays above

CCNC(=O)Nc1ccc(-c2cc(-c3ccccc3C#N)nc(N3CCOC[C@@H]3C)n2)cc1 [Example 8, (S)-1-(4-(6-(2-cyanophenyl)-2-(3-methylmorpholino)pyrimidin-4-yl)phenyl)-3-ethylurea]
not listed: kinases (kinome) [6]
> 10 µM: all other assays above
